# Molecular target: interaction between p53 and MDM2 proteins (Homo sapiens, UniProt Q00987)
# Experiment: HTRF assay of inhibition of the p53-MDM2 interaction (GST-MDM2 / biotinylated p53 peptide)
# Type: binding
# Details: recombinant GST-tagged MDM2 and biotinylated p53 peptide, bsa:0.02%
# Chain of interaction between p53 and MDM2 proteins (Q00987 whole entry): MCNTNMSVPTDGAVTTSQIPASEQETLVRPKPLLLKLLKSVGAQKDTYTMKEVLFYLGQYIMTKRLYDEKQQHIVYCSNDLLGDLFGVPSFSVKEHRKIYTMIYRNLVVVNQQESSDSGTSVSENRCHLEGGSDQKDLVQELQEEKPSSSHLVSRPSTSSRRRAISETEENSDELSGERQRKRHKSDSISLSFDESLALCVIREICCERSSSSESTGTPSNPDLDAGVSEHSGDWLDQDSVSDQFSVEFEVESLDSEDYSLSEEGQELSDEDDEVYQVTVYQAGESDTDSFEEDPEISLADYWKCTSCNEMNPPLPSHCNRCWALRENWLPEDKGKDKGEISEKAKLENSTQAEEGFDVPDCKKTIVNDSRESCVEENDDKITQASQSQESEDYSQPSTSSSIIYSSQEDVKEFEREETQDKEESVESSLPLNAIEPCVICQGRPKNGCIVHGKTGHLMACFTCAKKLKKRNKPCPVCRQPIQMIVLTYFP
row,SMILES,IC50 [nM]
1,"COc1cc(-n2cnnn2)ccc1NC(=O)[C@@H]1N[C@@H](CC(C)(C)C)[C@@]2(C(=O)Nc3cc(Cl)ccc32)[C@H]1c1cccc(Cl)c1F (racemic) [Example 153, rac-(2′S,3′R,4′S,5′R)-6-chloro-4′-(3-chloro-2-fluoro-phenyl)-2′-(2,2-dimethyl-propyl)-2-oxo-1,2-dihydro-spiro[indole-3,3′-pyrrolidine]-5′-carboxylic acid (2-methoxy-4-tetrazol-1-yl-phenyl)-amide]",8
2,"COc1cc(C(N)=O)ccc1NC(=O)[C@@H]1N[C@@H](CC(C)(C)C)[C@@]2(C(=O)Nc3cc(Cl)ccc32)[C@H]1c1cc(F)cc(Cl)c1 (racemic) [Example 115, rac-(2′S,3′R,4′R,5′R)-6-chloro-4′-(3-chloro-5-fluoro-phenyl)-2′-(2,2-dimethyl-propyl)-2-oxo-1,2-dihydro-spiro[indole-3,3′-pyrrolidine]-5′-carboxylic acid (4-carbamoyl-2-methoxy-phenyl)-amide]",6
3,"COc1cc(C(N)=O)ccc1NC(=O)[C@@H]1N[C@@H](CC(C)(C)C)[C@@]2(C(=O)Nc3cc(Cl)c(F)cc32)[C@H]1c1cccc(Cl)c1F (racemic) [Example 113, rac-(2′S,3′R,4′S,5′R)-6-chloro-4′-(3-chloro-2-fluoro-phenyl)-2′-(2,2-dimethyl-propyl)-5-fluoro-2-oxo-1,2-dihydro-spiro[indole-3,3′-pyrrolidine]-5′-carboxylic acid (4-carbamoyl-2-methoxy-phenyl)-amide]",9
4,"COc1cc(NS(C)(=O)=O)ccc1NC(=O)[C@@H]1N[C@@H](CC(C)(C)C)[C@@]2(C(=O)Nc3cc(Cl)ccc32)[C@H]1c1cccc(Cl)c1F (racemic) [Example 155, rac-(2′S,3′R,4′S,5′R)-6-chloro-4′-(3-chloro-2-fluoro-phenyl)-2′-(2,2-dimethyl-propyl)-2-oxo-1,2-dihydro-spiro[indole-3,3′-pyrrolidine]-5′-carboxylic acid (4-methanesulfonylamino-2-methoxy-phenyl)-amide]",13
5,"COc1cc(C(N)=O)ccc1NC(=O)[C@@H]1N[C@@H](CC(C)(C)C)[C@@]2(C(=O)Nc3cc(Cl)ccc32)[C@H]1c1cc(F)cc(Cl)c1 [Example 148, chiral (2′S,3′R,4′R,5′R)-6-chloro-4′-(3-chloro-5-fluoro-phenyl)-2′-(2,2-dimethyl-propyl)-2-oxo-1,2-dihydro-spiro[indole-3,3′-pyrrolidine]-5′-carboxylic acid (4-carbamoyl-2-methoxy-phenyl)-amide]",5
6,"COc1cc(N(C)C)ccc1NC(=O)[C@@H]1N[C@@H](CC(C)(C)C)[C@@]2(C(=O)Nc3cc(Cl)ccc32)[C@H]1c1cccc(Cl)c1F (racemic) [Example 164, rac-(2′S,3′R,4′S,5′R)-6-chloro-4′-(3-chloro-2-fluoro-phenyl)-2′-(2,2-dimethyl-propyl)-2-oxo-1,2-dihydro-spiro[indole-3,3′-pyrrolidine]-5′-carboxylic acid (4-dimethylamino-2-methoxy-phenyl)-amide]",18
7,"CC(C)(C)C[C@@H]1N[C@@H](C(=O)Nc2ccn(CCO)n2)[C@H](c2cccc(Cl)c2F)[C@]12C(=O)Nc1cc(Cl)ccc12 (racemic) [Example 44, rac-(2′S,3′R,4′S,5′R)-6-chloro-4′-(3-chloro-2-fluoro-phenyl)-2′-(2,2-dimethyl-propyl)-2-oxo-1,2-dihydro-spiro[indole-3,3′-pyrrolidine]-5′-carboxylic acid [1-(2-hydroxy-ethyl)-1H-pyrazol-3-yl]-amide]",10
8,"COc1cc(OCCO)ccc1NC(=O)[C@@H]1N[C@@H](CC(C)(C)C)[C@@]2(C(=O)Nc3c2ccc(Cl)c3F)[C@H]1c1cccc(Cl)c1F (racemic) [Example 179, rac-(2′S,3′R,4′S,5′R)-6-chloro-4′-(3-chloro-2-fluoro-phenyl)-2′-(2,2-dimethyl-propyl)-7-fluoro-2-oxo-1,2-dihydro-spiro[indole-3,3′-pyrrolidine]-5′-carboxylic acid [4-(2-hydroxy-ethoxy)-2-methoxy-phenyl]-amide]",39
9,"COc1cc(S(=O)(=O)N2CCOCC2)ccc1NC(=O)[C@@H]1N[C@@H](CC(C)(C)C)[C@@]2(C(=O)Nc3cc(Cl)ccc32)[C@H]1c1cccc(Cl)c1F (racemic) [Example 138, rac-(2′S,3′R,4′S,5′R)-6-chloro-4′-(3-chloro-2-fluoro-phenyl)-2′-(2,2-dimethyl-propyl)-2-oxo-1,2-dihydro-spiro[indole-3,3′-pyrrolidine]-5′-carboxylic acid [2-methoxy-4-(morpholine-4-sulfonyl)-phenyl]-amide]",13
10,"COc1cc(OCCS(C)(=O)=O)ccc1NC(=O)[C@@H]1N[C@@H](CC(C)(C)C)[C@@]2(C(=O)Nc3cc(Cl)ccc32)[C@H]1c1cccc(Cl)c1F [Example 170, chiral (2′S,3′R,4′S,5′R)-6-chloro-4′-(3-chloro-2-fluoro-phenyl)-2′-(2,2-dimethyl-propyl)-2-oxo-1,2-dihydro-spiro[indole-3,3′-pyrrolidine]-5′-carboxylic acid [4-(2-methanesulfonyl-ethoxy)-2-methoxy-phenyl]-amide]",7

# Continued, values first:
row,IC50 [nM],SMILES
1,18,"CN(C)C(=O)c1ccc(NC(=O)[C@@H]2N[C@@H](CC(C)(C)C)[C@@]3(C(=O)Nc4cc(Cl)ccc43)[C@H]2c2cccc(Cl)c2F)cc1 (racemic) [Example 34, rac-(2′S,3′R,4′S,5′R)-6-chloro-4′-(3-chloro-2-fluoro-phenyl)-2′-(2,2-dimethyl-propyl)-2-oxo-1,2-dihydro-spiro[indole-3,3′-pyrrolidine]-5′-carboxylic acid (4-dimethylcarbamoyl-phenyl)-amide]"
2,12,"CC(C)(C)C[C@@H]1N[C@@H](C(=O)Nc2nc(C(N)=O)cs2)[C@H](c2cccc(Cl)c2F)[C@]12C(=O)Nc1cc(Cl)ccc12 (racemic) [Example 198, rac-(2′S,3′R,4′S,5′R)-6-chloro-4′-(3-chloro-2-fluoro-phenyl)-2′-(2,2-dimethyl-propyl)-2-oxo-1,2-dihydro-spiro[indole-3,3′-pyrrolidine]-5′-carboxylic acid (4-carbamoyl-thiazol-2-yl)-amide]"
3,4,"COc1cc(NC(=O)[C@@H]2N[C@@H](CC(C)(C)C)[C@@]3(C(=O)Nc4cc(Cl)ccc43)[C@H]2c2cccc(Cl)c2F)ccc1C(=O)O [Example 17, chiral 4-{[(2′S,3′R,4′S,5′R)-6-chloro-4′-(3-chloro-2-fluoro-phenyl)-2′-(2,2-dimethyl-propyl)-2-oxo-1,2-dihydro-spiro[indole-3,3′-pyrrolidine]-5′-carbonyl]-amino}-2-methoxy-benzoic acid]"
4,19,"CC(C)(C)C[C@@H]1N[C@@H](C(=O)Nc2ccc(F)cc2)[C@H](c2cccc(Cl)c2F)[C@]12C(=O)Nc1cc(Cl)ccc12 (racemic) [Example 13, rac-(2′S,3′R,4′S,5′R)-6-chloro-4′-(3-chloro-2-fluoro-phenyl)-2′-(2,2-dimethyl-propyl)-2-oxo-1,2-dihydro-spiro[indole-3,3′-pyrrolidine]-5′-carboxylic acid (4-fluoro-phenyl)-amide]"
5,9,"CC(C)(CO)C[C@@H]1N[C@@H](C(=O)Nc2ccc(C(N)=O)cc2)[C@H](c2cccc(Cl)c2F)[C@]12C(=O)Nc1cc(Cl)ccc12 (racemic) [Example 106, rac-(2′S,3′R,4′S,5′R)-6-chloro-4′-(3-chloro-2-fluoro-phenyl)-2′-(3-hydroxy-2,2-dimethyl-propyl)-2-oxo-1,2-dihydro-spiro[indole-3,3′-pyrrolidine]-5′-carboxylic acid (4-carbamoyl-phenyl)-amide]"
6,20,"COC(=O)c1ccc(NC(=O)[C@@H]2N[C@@H](CC(C)(C)C)[C@@]3(C(=O)Nc4cc(Cl)ccc43)[C@H]2c2cccc(Cl)c2F)cc1Cl (racemic) [Example 25, rac-2-chloro-4-{[(2′S,3′R,4′S,5′R)-6-chloro-4′-(3-chloro-2-fluoro-phenyl)-2′-(2,2-dimethyl-propyl)-2-oxo-1,2-dihydro-spiro[indole-3,3′-pyrrolidine]-5′-carbonyl]-amino}-benzoic acid methyl ester]"
7,11,"CCOc1cc(C(=O)O)ccc1NC(=O)[C@@H]1N[C@@H](CC(C)(C)C)[C@@]2(C(=O)Nc3cc(Cl)ccc32)[C@H]1c1cccc(Cl)c1F (racemic) [Example 130, rac-4-{[(2′S,3′R,4′S,5′R)-6-chloro-4′-(3-chloro-2-fluoro-phenyl)-2′-(2,2-dimethyl-propyl)-2-oxo-1,2-dihydro-spiro[indole-3,3′-pyrrolidine]-5′-carbonyl]amino}-3-ethoxy-benzoic acid]"
8,8,"CC(C)(C)C[C@@H]1N[C@@H](C(=O)Nc2ccc(C(N)=O)s2)[C@H](c2cccc(Cl)c2F)[C@]12C(=O)Nc1cc(Cl)ccc12 (racemic) [Example 188, rac-(2′S,3′R,4′S,5′R)-6-chloro-4′-(3-chloro-2-fluoro-phenyl)-2′-(2,2-dimethyl-propyl)-2-oxo-1,2-dihydro-spiro[indole-3,3′-pyrrolidine]-5′-carboxylic acid (5-carbamoyl-thiophen-2-yl)-amide]"
9,5,"CN(C)C(=O)c1ccc(NC(=O)[C@@H]2N[C@@H](CC(C)(C)C)[C@@]3(C(=O)Nc4cc(Cl)ccc43)[C@H]2c2cccc(Cl)c2F)cc1 [Example 35, chiral (2′S,3′R,4′S,5′R)-6-chloro-4′-(3-chloro-2-fluoro-phenyl)-2′-(2,2-dimethyl-propyl)-2-oxo-1,2-dihydro-spiro[indole-3,3′-pyrrolidine]-5′-carboxylic acid (4-dimethylcarbamoyl-phenyl)-amide]"
10,11,"COc1cc(NC(=O)[C@@H]2N[C@@H](CC(C)(C)C)[C@@]3(C(=O)Nc4cc(Cl)ccc43)[C@H]2c2cccc(Cl)c2F)ccc1C(N)=O (racemic) [Example 22, rac-(2′S,3′R,4′S,5′R)-6-chloro-4′-(3-chloro-2-fluoro-phenyl)-2′-(2,2-dimethyl-propyl)-2-oxo-1,2-dihydro-spiro[indole-3,3′-pyrrolidine]-5′-carboxylic acid (4-carbamoyl-3-methoxy-phenyl)-amide]"

# Source: US8088815B2, “Spiroindolinone pyrrolidines” (Hoffman-La Roche Inc., priority 2009, dated 2012)
